Legend:
Type in all cases: in vivo, mouse
[1] = test system: heterozygous mutant mice carrying NR2F1 gene point mutation; test: Self-grooming experiment after administration of ginkgolide A; details: mutant (+/m) mice, gavage 2 mg/kg once a day, 7-8 weeks after birth, tested at 8 weeks; FIG. 12
Procedure: The experimental mice were placed in a feeding cage with the bottom covered with feed and the height was no more than 1 cm. The time of grooming behavior in mice in 10 minutes was recorded. The grooming position includes face, head, neck, ears, etc. Subsequent self-grooming experiments were conducted to detect repetitive stereotyped behaviors. […] Ginkgolide A was administered to heterozygous mutant mice. The detailed administration scheme was as follows: the administration method was gavage treatment, the concentration of ginkgolide A was 2 mg/kg, the administration time is 7-8 weeks after the birth of mutant mice, and the administration frequency was once a day.

[2] = test system: heterozygous mutant mice carrying NR2F1 gene point mutation; test: Three-box experiment (sociability and social novelty test) after administration of ginkgolide A; details: mutant (+/m) mice, gavage 2 mg/kg once a day, 7-8 weeks after birth, tested at 8 weeks; FIG. 11
Procedure: a. Experimenter A entered the behavior room one hour before the experiment, took out a cage (four) of the experimental mice placed in the next room and placed them in the behavior room 1 hour. Meanwhile, the two mice needed in the experiment (note that the mice used here and the experimental mice cannot be in the same nest, and the sex should be the same) were placed in the behavior room 1 hour. Turn on the light to adapt it to the environment; b. Experimenter A started to clean the three boxes of equipment used in the experiment about half an hour before the experiment, sprayed the 30% alcohol on all parts of the three boxes, wiped gently with a white cloth, and then wiped dry with a new clean white cloth. Then two cages and two objects were washed. And the cloth used to block personnel and the experimental area was put up. c. At the same time, experimenter B began to debug the computer operating software: open the three-box experimental program and confirm whether the positions of the three boxes coincide with the position divided by the software. If not, please assist experimenter A in adjusting. […] After everything was ready, in the first round of the experiment, experimenter A put identical objects in areas 2 and 3, such as bottle caps. […] 5 min later, the experiment was ready to start. […] The experiment lasted 10 min, and the software recorded the time and distance of mice in each area. […]

[3] = test system: heterozygous mutant mice carrying NR2F1 gene point mutation; test: Elevated-plus maze experiment after administration of ginkgolide A; details: mutant (+/m) mice, gavage 2 mg/kg once a day, 7-8 weeks after birth, tested at 8 weeks; FIG. 13
Procedure: The related anxiety state of mice were investigated by using the characteristics that mice like to explore in the new environment and the contradictory behavior of fear of heights with open arms at heights. In order to increase the total number of mice entering the arm and avoid hiding in the closed arm, the animals were usually placed in an open environment for 5 minutes and then placed in the maze. Similarly, the mice were placed in a room with an elevated experimental device to adapt to the environment one hour before the start of the experiment, with the red light turned on, and the room temperature was kept at 25° C. At the beginning of the experiment, hold the mouse into the palm of the hand, place it in the middle of the cross facing the closed arm, and quickly leave this room. Then another person started recording and tracking the activity movement of the mouse in another room. In the process, the times of the experimental mouse entering the open arm and the closed arm was counted, and the time of staying in the open arm and the closed arm was counted respectively; after the whole process was recorded for 5 minutes for the experiment, the mice were gently stroked, and put back into the cage. The elevated-plus table was cleaned with 70% alcohol for the experiment of the next mouse. The elevated-plus experiment is mainly used to detect the anxiety behavior of mice. […]

In the case of `C[C@@H]1C(=O)O[C@H]2C[C@@]34[C@H]5C[C@@H](C(C)(C)C)[C@]36[C@@H](OC(=O)[C@@H]6O)O[C@@]4(C(=O)O5)[C@]21O` [ginkgolide A], the self-grooming time [1] is reported as “significantly reduced”, the “time of interaction with similar mice (sociability)” value [2] is reported as “significantly increased” and the “time of interaction with unfamiliar mice (social novelty)” value [2] is reported as “significantly increased”. The “time to explore the open arm” value [3] was “increased significantly”.
